Measurements published in patent US6559115B1, “Detergent tablet with high mechanical and dissolution characteristics” (The Procter & Gamble Company, priority 1998, dated 2003).

What was measured:
[1] = Conductivity test defining a highly soluble compound; assay type: physicochemical; details: conductivity reaches 80% of maximum in less than 10 seconds
Method: A solution is prepared as follows comprising de-ionised water as well as 20 grams per liter of a specific compound:
1—20 g of the specific compound is placed in a Sotax Beaker. This beaker is placed in a constant temperature bath set at 10° C. A stirrer with a marine propeller is placed in the beaker so that the bottom of the stirrer is at 5 mm above the bottom of the Sotax beaker. The mixer is set at a rotation speed of 200 turns per minute.
2—980 g of the de-ionised water is introduced into the Sotax beaker.
3—10 s after the water introduction, the conductivity of the solution is measured, using a conductivity meter.
4—Step 3 is repeated after 20, 30, 40, 50, 1 min, 2 min, 5 min and 10 min after step 2.
5—The measurement taken at 10 min is used as the plateau value or maximum value.

[2] = Tablet compression and tensile strength (diametrical fracture stress); assay type: physicochemical; details: tensile strength increased by over 30% by 3% compound at compacting force 3000N
Excerpt: For the purpose of this invention, the Cohesive Effect on the particulate material of a detergent matrix is characterised by the force required to break a tablet based on the examined detergent matrix pressed under controlled compression conditions. […] Means to assess tablet strength (also refer to diametrical fracture stress) are given in Pharmaceutical dosage forms: tablets volume 1 Ed. H. A. Lieberman et al, published in 1989.
The temperature of the addition is between 10 and 80 C., more pref. between 10 and 40 C.
For a cylindrical tablet, the tensile strength corresponds to the diametrical fracture stress (DFS) which is a way to express the strength of a tablet, and is determined by the following equation: [formula]
Where F is the maximum force (Newton) to cause tensile failure (fracture) measured by a VK 200 tablet hardness tester supplied by Van Kell industries, Inc. D is the diameter of the tablet, and t the thickness of the tablet.
iii) Tablets were then made the following way: 50 g of the mixture was introduced into a mould of circular shape with a diameter of 5.5 cm and compressed to give a tablet tensile strength (or diametrical fracture stress) of 15 kPa. The force required to obtain a tablet tensile strength of 15 kPa was 2400 N. The tablet height was 1.94 cm.

- Highly soluble compound according to the invention [1]: highly soluble
- Cohesive effect on the particulate material [2]: having a cohesive effect
Substance: sodium di isoalkylbenzene sulphonate [Compounds of Example 1]
